Measured values reported in article PMC5755735, “Discovery of indolylpiperazinylpyrimidines with dual-target profiles at adenosine A2A and dopamine D2 receptors for Parkinson's disease treatment” (PLoS ONE, 2018).
“And” between values parts separate entries of the source, which are not always exact repeats. Equal values may be shown once.

How the values were obtained:
[1] = biological target: T1, human A2B receptors expressed in CHO cells (Homo sapiens, UniProt P29275); test: inhibition of NECA-stimulated adenylyl cyclase activity at hA2B
T1 sequence (P29275 1-332): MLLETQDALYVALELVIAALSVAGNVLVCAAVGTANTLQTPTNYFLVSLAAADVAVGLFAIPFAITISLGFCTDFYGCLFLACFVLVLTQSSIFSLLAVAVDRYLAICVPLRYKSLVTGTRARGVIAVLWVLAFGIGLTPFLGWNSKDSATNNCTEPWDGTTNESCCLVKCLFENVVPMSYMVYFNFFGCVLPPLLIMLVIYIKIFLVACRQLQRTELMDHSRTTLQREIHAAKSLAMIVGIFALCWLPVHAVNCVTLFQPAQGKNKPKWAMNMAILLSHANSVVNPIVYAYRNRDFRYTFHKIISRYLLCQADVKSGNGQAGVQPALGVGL
Description: The membranes were incubated with about 150,000 cpm of [α-^32P]adenosine triphosphate ([α-^32P]ATP) and test compounds in different concentrations for 20 min. A non-linear regression analysis was applied to calculate the IC50 of the adenylyl cyclase activity assay. From the IC50 values, Ki values were then calculated using the Cheng and Prusoff equation [46].

[2] = biological target: human dopamine D2 receptor (Homo sapiens, UniProt P14416); test: D2R-proteopolymersomes-based fluorescence competition assay with BODIPY-NAPS; assay type: binding; parameters: made in house; host or cells: in vitro (cell-free) synthesis, inserted into polymersomes; settings: + D2-ACM (D2R-proteopolymersomes); read-out: EC50 (D2 receptor, displacement of BODIPY-NAPS)
Description: For the replacement assay, ABA-polymersomes were covalently attached to an amino-functionalized glass slide, which was then treated with isopropanol, ultrapure water and a N2-stream. […] Program ImageJ was used for determination of fluorescence intensities.

[3] = test system: HL-1 cardiomyocyte; test: cell viability assay in HL-1 cardiomyocytes (Cell-Titer-Glo); assay type: cell-based; settings: concentrations less than 30 μM, 24 h
Description: Besides the mutagenicity study, compounds 5 and 6 were also subjected to cell viability assays using transforming growth factor-alpha mouse hepatocyte (TAMH) and HL-1 cardiomyocyte to assess the cytotoxic potential. TAMH lines were treated with compounds 5 and 6 in eight different concentrations (100 μM, 33.3 μM, 11.1 μM, 3.7 μM, 1.23 μM, 0.41 μM, 0.13 μM, 0.045 μM), and the percentage of viable cells was plotted against the logarithm of ligand concentration (S10B and S10C Fig). […] Acetaminophen, a drug with direct hepatotoxic potential, was used as the positive control in this assay (S10A Fig). […] Doxorubicin, a chemotherapeutic agent known to cause dose-dependent cardiotoxicity, was used as the positive control in this assay (S10D Fig).
Immortalised hepatocyte and cardiomyocyte cell lines, TAMH (TGF-α overexpressing mouse hepatocytes) and HL-1 were used respectively as models for in vitro toxicity studies. Both cell lines were cultured in accordance with previously described methods. […] The cell-reagent mixture was transferred to a solid white flat-bottom 96-well plate (Greiner 655207) for luminescence reading. Luminescence was recorded with an integration time of 0.25 second with a Tecam Infinite® M200 Microplate reader. Data are expressed as percentage of viable cells compared to DMSO-treated controls. […]

[4] = biological target: human A2A receptors expressed in CHO cells (Homo sapiens, UniProt P29274); test: competition binding at human A2A adenosine receptors ([3H]NECA displacement); settings: for Ki: displacement of [3H]NECA, CHO cells, 95% confidence limits, n = 3–6, read-out: Ki hA2A; for hA1/hA2A / hA3/hA2A: selectivity ratio of Ki values
Description: (§1) A two-step procedure was adopted to prepare membrane for radioligand binding from cells stably transfected with human adenosine receptor subtypes (hA1, hA2A and hA3 expressed on CHO cells). Firstly, cell fragments and nuclei were removed by using low-speed centrifugation (1,000 g for 10 min). After that, crude membrane fraction from supernatant was then sedimented at 100,000 g for 30 min. The membrane pellet was subsequently re-suspended in the specific binding buffer, frozen in liquid nitrogen and stored at -80°C. For measurement of adenylyl cyclase activity in the hA2B receptors, one-step centrifugation procedure was used; the homogenate was sedimented for 30 min at 54,000 g. The so-obtained crude membrane pellet was re-suspended in 50 mM Tris/HCl, pH 7.4 and used for the adenylyl cyclase assay immediately.
(§2) Non-specific binding was determined using theophylline 1 mM. […] Non-specific binding was determined using N^6-R-phenylisopropyl adenosine (R-PIA) 100 μM. ^41 The binding of [^3H]HEMADO to CHO cells transfected with hA3 adenosine receptors was carried out as described earlier. […] Non-specific binding was determined using R-PIA 100 μM.
(§3) The assay mixture was then filtered through the built-in filter at the bottom of the 96-well microplate filtration system (Millipore Multiscreen MAFC) and washed three times with 200 μL of cold buffer. After addition of 20 μL of scintillator to the dried filter plates, the filter bound radioactivity was counted on a Wallac Micro-Beta counter. All Ki values were calculated by non-linear curve fitting with the program SCTFIT [45].

[5] = biological target: T2, human A3 receptors expressed in CHO cells (Homo sapiens, UniProt P0DMS8); test: competition binding at human A3 adenosine receptors ([3H]HEMADO displacement); settings: displacement of [3H]HEMADO, 95% confidence limits, n = 3–6, read-out: Ki hA3
T2 sequence (P0DMS8 1-318): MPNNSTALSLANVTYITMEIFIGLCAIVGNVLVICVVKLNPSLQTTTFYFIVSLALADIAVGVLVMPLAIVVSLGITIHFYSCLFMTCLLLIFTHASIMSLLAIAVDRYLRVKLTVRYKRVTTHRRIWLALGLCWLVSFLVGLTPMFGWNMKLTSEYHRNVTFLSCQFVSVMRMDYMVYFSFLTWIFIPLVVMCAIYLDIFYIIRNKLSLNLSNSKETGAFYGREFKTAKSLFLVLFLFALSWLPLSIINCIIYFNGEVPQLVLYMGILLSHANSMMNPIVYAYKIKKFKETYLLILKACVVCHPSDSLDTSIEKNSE
Description: as §1, §2, §3

human dopamine D2 receptor, sequence (P14416 whole entry): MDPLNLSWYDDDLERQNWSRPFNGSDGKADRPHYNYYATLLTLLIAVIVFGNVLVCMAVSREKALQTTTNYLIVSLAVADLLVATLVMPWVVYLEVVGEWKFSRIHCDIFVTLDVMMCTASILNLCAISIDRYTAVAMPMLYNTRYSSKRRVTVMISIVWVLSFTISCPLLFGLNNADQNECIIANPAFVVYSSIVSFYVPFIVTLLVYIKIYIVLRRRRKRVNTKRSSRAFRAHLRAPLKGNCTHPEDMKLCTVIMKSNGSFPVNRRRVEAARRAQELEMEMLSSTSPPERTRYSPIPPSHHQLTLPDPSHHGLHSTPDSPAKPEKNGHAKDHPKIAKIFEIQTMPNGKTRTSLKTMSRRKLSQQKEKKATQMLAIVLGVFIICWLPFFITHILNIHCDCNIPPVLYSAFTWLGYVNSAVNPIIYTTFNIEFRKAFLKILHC
human A2A receptors expressed in CHO cells, sequence (P29274 whole entry, the tested form may be a part): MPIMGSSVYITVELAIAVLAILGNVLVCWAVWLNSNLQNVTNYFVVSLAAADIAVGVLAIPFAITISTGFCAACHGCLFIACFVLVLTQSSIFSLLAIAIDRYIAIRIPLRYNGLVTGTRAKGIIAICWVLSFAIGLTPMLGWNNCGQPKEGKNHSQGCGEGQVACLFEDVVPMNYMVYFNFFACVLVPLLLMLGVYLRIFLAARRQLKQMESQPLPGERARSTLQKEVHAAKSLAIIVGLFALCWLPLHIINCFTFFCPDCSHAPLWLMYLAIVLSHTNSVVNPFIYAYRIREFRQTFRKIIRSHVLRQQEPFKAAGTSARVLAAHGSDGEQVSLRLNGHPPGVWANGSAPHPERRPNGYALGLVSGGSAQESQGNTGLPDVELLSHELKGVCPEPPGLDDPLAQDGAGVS

| Compound | Ki [1] | EC50 [2] | cytotoxicity (cell viability) [3] | Ki [4] | hA1/hA2A [4] | hA3/hA2A [4] | Ki [5] |
| --- | --- | --- | --- | --- | --- | --- | --- |
| Cc1cc(C)nc(N2CCN(C(=O)Cc3c(C)[nH]c4ccccc34)CC2)n1 [Compound 6, 1‐[4‐(4,6‐Dimethylpyrimidin‐2‐yl)piperazin‐1‐yl]‐2‐(2‐methyl‐1H‐indol‐3‐yl)ethan‐1‐one] | > 20 µM | 22.5 to 40.2 µM and 40.2 µM | no toxicity observed | 8.71 µM | >11 | >11 | > 100 µM |
| Cc1cc(C)nc(N2CCN(C(=O)c3c[nH]c4ccccc34)CC2)n1 [Compound 5, 3‐[4‐(4,6‐Dimethylpyrimidin‐2‐yl)piperazine‐1‐carbonyl]‐1H‐indole] |  | 22.5 to 40.2 µM and 22.5 µM | no toxicity observed | 11.2 µM and 8.7 to 11.2 µM | >9 | >9 | > 100 µM |
